Reference: patent US20220306691A1, “THERAPEUTIC PEPTIDES” (COHBAR, INC., priority 2019, published 2022)
Where a SMILES comes first, the peptide text is derived from it. Where no end group is shown, it is not given here. [ ]: non-standard residue; d: D form.

Tests used:
MDA-MB-231 cells [1] = assay: Cell viability, MTS assay in MDA-MB-231 cells; format: cell-based, human; conditions: for MTS Assay (cell viability), Percent of Control Activity: human, 72 hours
Procedure: Test compounds and reference compound staurosporine (Selleckchem) were all dissolved with DMSO at 10 mM stock. […] Activity was calculated relative to DMSO control. […] Cell viability was 3% of the DMSO control value for Staurosporine (10 uM).

MCF-7 cells = assay: Cell viability, MTS assay in MCF-7 cells; conditions: for MTS Assay (cell viability), Percent of Control Activity: human, 72 hours, 10 µM
Procedure: Peptides and reference compound staurosporine (Selleckchem) were dissolved with DMSO at 10 mM stock. CellTiter 96® AQueous One Solution Reagent (MTS assay reagent) was purchased from Promega (Madison, Wis.). MCF-7 human breast cancer cell line was purchased from American Type Culture Collection (Manassas, Va.). MCF-7 cells were grown in EMEM Medium supplemented with 10% FBS and 0.01 mg/ml human recombinant insulin. 100 μg/ml penicillin and 100 μg/ml streptomycin were added to the culture medium. […] 5 μl of CellTiter 96® AQueous One Solution Reagent (MTS assay reagent) was added to each well and incubated at 37° C., 5% CO2 for 5 hours. Absorbance at 492 nm was recorded by Envision 2104 Multilabel Reader. Treatment with DMSO alone was used as the cell viability activity control.

3T3-L1 adipocytes = assay: Free fatty acid levels in cultured 3T3-L1 adipocytes stimulated with isoproterenol; conditions: for Free Fatty Acid Levels, Percent of Control Value (Percent Isoproterenol Control): test peptides 25 μM, 20-22 hours then 3 hours with isoproterenol (1 nM)
Procedure: Mouse 3T3-L1 adipocytes were seeded at 3,000 cells per well in 96-well plates in Pre-adipocyte Medium (Zen-Bio, Durham, N.C.) and grown to confluence at 37° C. in a humidified atmosphere of 5% CO2/95% air. Two days after confluence, cells were placed in Adipocyte Differentiation Medium (Zen-Bio, Durham, N.C.) and cultured for three additional days at 37° C. in a humidified atmosphere of 5% CO2/95% air. The culture media was then replaced with Adipocyte Maintenance Medium (Zen-Bio) and the cells maintained for an additional 9-12 days at 37° C. in a humidified atmosphere of 5% CO2/95% air with partial medium replacement every other day. Following 12-15 days' differentiation, test peptides were added to a final concentration of 25 μM and incubated for 20-22 hours in Adipocyte Maintenance Medium. After 20-22 hours, isoproterenol (1 nM) was added to all wells except untreated controls and test peptides were replenished. Cells were incubated for a further 3 hours in Assay Buffer (Zen-Bio). Free fatty acid concentrations in the media were determined using a Free Fatty Acid Assay Kit (Zen-Bio) according to the manufacturer's instructions using a plate reader (540 nm). Absorbance values were corrected for untreated background and expressed relative to isoproterenol treated cells. Treatment with isoproterenol (1 nM) alone was used as the free fatty acid level stimulatory control. The relative standard deviation of the isoproterenol control was <10%.

MDA-MB-231 cells [2] = assay: Caspase 3/7 activity (Caspase-Glo 3/7) in MDA-MB-231 cells; format: cell-based, human; conditions: test peptides at 10 μM, 18 hours, relative to DMSO control
Procedure: The effect of the peptides on cell death/survival can be assessed using a caspase-3 assay. Peptides were dissolved with DMSO at 10 mM stock. […] Staurosporine (Selleckchem) was dissolved with DMSO at 1 mM stock. Caspase-Glo 3/7 Assay Reagent was purchased from Promega (Madison, Wis.). MDA-MB-231 human breast cancer cell line was purchased from American Type Culture Collection (Manassas, Va.). MDA-MB-231 cells were grown in DMEM Medium supplemented with 10% FBS. 100 μg/ml penicillin and 100 μg/ml streptomycin were added to the culture medium. […] 25 μl of Caspase-Glo 3/7 Assay Reagent was added to each well and incubated at 37° C., 5% CO2 for 1 hour. Luminescence for each sample well on the plate was measured by Envision 2104 Multilabel Reader (PerkinElmer, Santa Clara, Calif.). Activity was calculated relative to DMSO control.

Row | Compound | Free Fatty Acid Levels, Percent of Control Value (Percent Isoproterenol Control) (3T3-L1 adipocytes) [%] | further results
1 | CN[C@@H]1C[C@H]2O[C@@](C)([C@@H]1OC)n1c3ccccc3c3c4c(c5c6ccccc6n2c5c31)C(=O)NC4 [staurosporine, reference compound] |  | Cell viability, % of the DMSO control value (MDA-MB-231 cells [1]; MDA-MB-231 cells, Staurosporine 10 uM, positive control): 3%; Cell viability, % of the background corrected DMSO control value (MCF-7 cells; MCF-7 cells, staurosporine 10 uM, positive control): < 5%
2 | MNIVVGKRLIIKVDATMDFT [compound 7] | 94 | MTS Assay (cell viability), Percent of Control Activity (MDA-MB-231 cells [1]): 75%; Caspase 3/7 Activity, Percent of Control Activity (MDA-MB-231 cells [2]): 73%; MTS Assay (cell viability), Percent of Control Activity (MCF-7 cells): 59%
3 | 5 ([dA]CFRCEIVVGSWCWSLS; cysteine pairing not given here) [compound 5] | 113 | 
4 | MWWVSEPHCVVVNM [compound 12] | 112 | MTS Assay (cell viability), Percent of Control Activity (MDA-MB-231 cells [1]): 78%; Caspase 3/7 Activity, Percent of Control Activity (MDA-MB-231 cells [2]): 56%; MTS Assay (cell viability), Percent of Control Activity (MCF-7 cells): 63%
5 | 9 (NIVVGKRLIIKVD[dA]TMDFT) [compound 9] | 103 | 
6 | 18 (VHHRILTVIYKLRPKH) [compound 18] | 75 | 
7 | 13 (WWVSEPHCVVVNM) [compound 13] | 109 | 
8 | Insulin [reference compound] |  | Free fatty acid levels, % of the isoproterenol control value (3T3-L1 adipocytes; insulin 100 nM, positive control): < 5%
9 | 24 (VITFIWSCTKIFG) [compound 24] | 90 | 
10 | MVHHRILTVIYKLRPKH [compound 17] | 88 | MTS Assay (cell viability), Percent of Control Activity (MDA-MB-231 cells [1]): 82%; Caspase 3/7 Activity, Percent of Control Activity (MDA-MB-231 cells [2]): 74%; MTS Assay (cell viability), Percent of Control Activity (MCF-7 cells): 60%
11 | MVITFIWSCTKIFGA [compound 22] | 133 | MTS Assay (cell viability), Percent of Control Activity (MDA-MB-231 cells [1]): 81%; Caspase 3/7 Activity, Percent of Control Activity (MDA-MB-231 cells [2]): 69%; MTS Assay (cell viability), Percent of Control Activity (MCF-7 cells): 58%
12 | 10 (NIVV[dA]KRLIIKVDATMDFT) [compound 10] | 91 | 
13 | 23 (VITFIWSCTKIFGA) [compound 23] | 128 | 
14 | 8 (NIVVGKRLIIKVDATMDFT; not fully specified) [compound 8] | 81 | 
15 | 4 (ACFRCEIVVGSWCWSLS; not fully specified; cysteine pairing not given here) [compound 4] | 116 | 
16 | 19 (HHRILTVIYKLRPKH) [compound 19] | 78 | 
17 | CC[C@H](C)[C@H](NC(=O)[C@H](CCC(=O)O)NC(=O)[C@H](CS)NC(=O)[C@H](CCCNC(=N)N)NC(=O)[C@H](Cc1ccccc1)NC(=O)[C@H](CS)NC(=O)[C@H](C)NC(=O)[C@H](CC(C)C)NC(=O)[C@@H](N)CCSC)C(=O)N[C@H](C(=O)N[C@H](C(=O)NCC(=O)N[C@@H](CO)C(=O)N[C@@H](Cc1c[nH]c2ccccc12)C(=O)N[C@@H](CS)C(=O)N[C@@H](Cc1c[nH]c2ccccc12)C(=O)N[C@@H](CO)C(=O)N[C@@H](CC(C)C)C(=O)N[C@@H](CO)C(=O)O)C(C)C)C(C)C [compound 2] (H-MLACFRCEIVVGSWCWSLS-OH; N-terminus and C-terminus assumed) | 114 | MTS Assay (cell viability), Percent of Control Activity (MDA-MB-231 cells [1]): 78%; Caspase 3/7 Activity, Percent of Control Activity (MDA-MB-231 cells [2]): 95%; MTS Assay (cell viability), Percent of Control Activity (MCF-7 cells): 55%
18 | 25 (VITFIWSCTKIF) [compound 25] | 115 | 
19 | 15 (WVSEPHCVVVN) [compound 15] | 97 | 
20 | 20 (HRILTVIYKLRP[dA]H) [compound 20] | 27 | 
21 | 14 (WWVSEPHCVVVN) [compound 14] | 102 | 
22 | 3 (LACFRCEIVVGSWCWSLS) [compound 3] | 109 | 
